Reference: patent US20240252488A1 (KOREA RESEARCH INSTITUTE OF CHEMICAL TECHNOLOGY, priority 2020, published 2024)
pKd: −log10 of the molar value.

Tests used:
FADD−/− Jurkat cells = assay: Necroptosis inhibition assay, TNF-α-induced necroptosis (CellTiter-Glo 2.0); type: cell-based, human; conditions: TNF-α 15 ng/mL; for Necroptosis inhibition assay (Rescue %) 1 μM: compound 1 μM; for Necroptosis inhibition assay (Rescue %) 10 μM: compound 10 μM
Procedure, shortened: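 Compound is added to cells at final concentrations of 0.1, 1 and 10 μM and left 30 minutes at room temperature. Necroptosis is induced with 15 ng/mL TNF-α, culture continues 20 to 24 hours at 37° C, and ATP-based luminescence reports viability.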

MLKL [1] = molecular target: T1, MLKL (Homo sapiens, UniProt Q8NB16); assay: Measurement of binding affinity with MLKL receptor (competitive binding assay, Kd); parameters: made in house; host or cells: HEK 293 cell line (T7 phage in E. coli BL21-derived host is also described)
T1 sequence (Q8NB16 1-471): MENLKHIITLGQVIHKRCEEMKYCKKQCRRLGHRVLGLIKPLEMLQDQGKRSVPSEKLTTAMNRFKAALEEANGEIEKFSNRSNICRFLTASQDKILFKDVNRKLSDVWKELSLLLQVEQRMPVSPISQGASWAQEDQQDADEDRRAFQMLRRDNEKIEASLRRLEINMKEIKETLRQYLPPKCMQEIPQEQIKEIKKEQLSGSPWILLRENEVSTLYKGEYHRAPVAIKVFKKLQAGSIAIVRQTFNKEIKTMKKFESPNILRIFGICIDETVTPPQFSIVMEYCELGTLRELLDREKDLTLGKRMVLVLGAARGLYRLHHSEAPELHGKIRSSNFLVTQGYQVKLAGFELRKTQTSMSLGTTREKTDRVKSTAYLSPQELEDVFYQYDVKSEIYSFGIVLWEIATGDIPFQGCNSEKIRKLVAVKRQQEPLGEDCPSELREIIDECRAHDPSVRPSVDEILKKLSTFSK
Procedure, shortened: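 Competition binding of kinase tagged with DNA for qPCR detection, expressed in HEK 293 cells, against immobilized ligand on beads. Final DMSO 0.9%. Kd derived from kinase amount in eluates measured by qPCR.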

MLKL [2] = molecular target: T1, MLKL; assay: MLKL degradation assay in HepG2 cell line (western blot); type: cell-based; parameters: endogenous in cells; host or cells: HepG2 or HaCaT; conditions: cell line not given; for Degradation assay (Degradation %) 1 μM: compound 1 μM; for Degradation assay (Degradation %) 10 μM: compound 10 μM
Procedure, shortened: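 Chemiluminescent western blot signal reports remaining MLKL protein in HepG2 cells after 20-24 h treatment with compound at a final 1 or 10 μM. Equal protein (10-15 μg, BCA) is loaded per lane.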

SMILES | pKd (MLKL [1]) | Degradation assay (Degradation %) 1 μM (MLKL [2]) | Degradation assay (Degradation %) 10 μM (MLKL [2]) | Necroptosis inhibition assay (Rescue %) 1 μM (FADD−/− Jurkat cells) | Necroptosis inhibition assay (Rescue %) 10 μM (FADD−/− Jurkat cells) | Necroptosis inhibition assay (Rescue %) 1 μM (FADD−/− Jurkat cells; FADD−/− Jurkat cells) | Necroptosis inhibition assay (Rescue %) 10 μM (FADD−/− Jurkat cells; FADD−/− Jurkat cells)
Nc1ncc(-c2cnn(C3CCN(CCC4CCN(C(=O)CCc5cccc6c5CN(C5CCC(=O)NC5=O)C6=O)CC4)CC3)c2)nc1C(=O)O[C@@H](C(=O)Nc1ccc(F)cc1)c1ccccc1 (stereo partly drawn) [TDH-385, (R)-2-((4-fluorophenyl)amino)-2-oxo-1-phenylethyl 3-amino-6-(1-(1-(2-(1-(3-(2-(2,6-dioxopiperidin-3-yl)-1-oxoisoindolin-4-yl)propanoyl)piperidin-4-yl)ethyl)piperidin-4-yl)-1H-pyrazol-4-yl)pyrazine-2-carboxylate] | 9.12 | 94.85% | 85.11% | 53.62% | 14.09% |  | 
Nc1ncc(-c2cnn(C3CCN(C(=O)CCC4CCN(C(=O)COc5ccc6c(c5)C(=O)N(C5CCC(=O)NC5=O)C6=O)CC4)CC3)c2)nc1C(=O)O[C@@H](C(=O)Nc1ccc(F)cc1)c1ccccc1 (stereo partly drawn) [TDH-416, (R)-2-((4-fluorophenyl)amino)-2-oxo-1-phenylethyl 3-amino-6-(1-(1-(3-(1-(2-((2-(2,6-dioxopiperidin-3-yl)-1,3-dioxoisoindolin-5-yl)oxy)acetyl)piperidin-4-yl)propanoyl)piperidin-4-yl)-1H-pyrazol-4-yl)pyrazine-2-carboxylate] | 8.62 | 93.24% | 93.04% |  |  | 52.88% | 43.06%
Nc1ncc(-c2cn(C3CCN(CC4CCN(C(=O)CNc5cccc6c5C(=O)N(C5CCC(=O)NC5=O)C6=O)CC4)CC3)nn2)nc1C(=O)OC(C(=O)Nc1ccc(F)cc1)c1ccccc1 (stereo not drawn) [TDH-224, 2-((4-fluorophenyl)amino)-2-oxo-1-phenylethyl 3-amino-6-(1-(1-((1-((2-(2,6-dioxopiperidin-3-yl)-1,3-dioxoisoindolin-4-yl)glycyl)piperidin-4-yl)methyl)piperidin-4-yl)-1H-1,2,3-triazol-4-yl)pyrazine-2-carboxylate] | 7.72 | 49.26% | 56.93% | 63.63% | 67.66% |  | 
Nc1ncc(-c2cnn(C3CCN(C(=O)COCCOCCNC(=O)C4CN(c5ccc6c(c5)C(=O)N(C5CCC(=O)NC5=O)C6=O)C4)CC3)c2)nc1C(=O)O[C@@H](C(=O)Nc1ccc(F)cc1)c1ccccc1 (stereo partly drawn) [TDH-193, (R)-2-((4-fluorophenyl)amino)-2-oxo-1-phenylethyl 3-amino-6-(1-(1-(2-(2-(2-(1-(2-(2,6-dioxopiperidin-3-yl)-1,3-dioxoisoindolin-5-yl)azetidine-3-carboxamido)ethoxy)ethoxy)acetyl)piperidin-4-yl)-1H-pyrazol-4-yl)pyrazine-2-carboxylate] | 8.21 |  | 11.22% | 43.97% | 40.55% |  | 
Nc1ncc(-c2cnn(C3CCN(C(=O)CC4CCN(C(=O)C5CCN(c6ccc7c(c6)C(=O)N(C6CCC(=O)NC6=O)C7=O)CC5)CC4)CC3)c2)nc1C(=O)O[C@@H](C(=O)Nc1ccc(F)cc1)c1ccccc1 (stereo partly drawn) [TDH-342, (R)-2-((4-fluorophenyl)amino)-2-oxo-1-phenylethyl 3-amino-6-(1-(1-(2-(1-(1-(2-(2,6-dioxopiperidin-3-yl)-1,3-dioxoisoindolin-5-yl)piperidine-4-carbonyl)piperidin-4-yl)acetyl)piperidin-4-yl)-1H-pyrazol-4-yl)pyrazine-2-carboxylate] | 8.24 | 70.74% | 54.03% | 28.05% | 17.55% |  | 
Nc1ncc(-c2cnn(C3CCN(CC4CCN(C(=O)CCc5cccc6c5CN(C5CCC(=O)NC5=O)C6=O)CC4)CC3)c2)nc1C(=O)O[C@@H](C(=O)Nc1ccc(F)cc1)c1ccccc1 (stereo partly drawn) [TDH-384, (R)-2-((4-fluorophenyl)amino)-2-oxo-1-phenylethyl 3-amino-6-(1-(1-((1-(3-(2-(2,6-dioxopiperidin-3-yl)-1-oxoisoindolin-4-yl)propanoyl)piperidin-4-yl)methyl)piperidin-4-yl)-1H-pyrazol-4-yl)pyrazine-2-carboxylate] | 8.72 | 81.59% | 58.63% | 39.08% | 9.67% |  | 
Nc1ncc(-c2cnn(C3CCN(C(=O)C4CCN(C(=O)CCc5cccc6c5C(=O)N(C5CCC(=O)NC5=O)C6=O)CC4)CC3)c2)nc1C(=O)O[C@@H](C(=O)Nc1ccc(F)cc1)c1ccccc1 (stereo partly drawn) [TDH-380, (R)-2-((4-fluorophenyl)amino)-2-oxo-1-phenylethyl 3-amino-6-(1-(1-(1-(3-(2-(2,6-dioxopiperidin-3-yl)-1,3-dioxoisoindolin-4-yl)propanoyl)piperidine-4-carbonyl)piperidin-4-yl)-1H-pyrazol-4-yl)pyrazine-2-carboxylate] | 8.82 | 86.88% | 95.41% | 38.37% | 35.96% |  | 

Further lines, with some results ahead:

pKd (MLKL [1]) | Degradation assay (Degradation %) 1 μM (MLKL [2]) | Degradation assay (Degradation %) 10 μM (MLKL [2]) | SMILES | Necroptosis inhibition assay (Rescue %) 1 μM (FADD−/− Jurkat cells) | Necroptosis inhibition assay (Rescue %) 10 μM (FADD−/− Jurkat cells) | Necroptosis inhibition assay (Rescue %) 1 μM (FADD−/− Jurkat cells; FADD−/− Jurkat cells) | Necroptosis inhibition assay (Rescue %) 10 μM (FADD−/− Jurkat cells; FADD−/− Jurkat cells)
9.43 | 81.44% | 56.99% | Cn1c(=O)n(C2CCC(=O)NC2=O)c2ccc(N3CCC(C(=O)N4CCN(CCCN5CCC(n6cc(-c7cnc(N)c(C(=O)O[C@@H](C(=O)Nc8ccc(F)cc8)c8ccccc8)n7)cn6)CC5)CC4)CC3)cc21 (stereo partly drawn) [TDH-540, (R)-2-((4-fluorophenyl)amino)-2-oxo-1-phenylethyl 3-amino-6-(1-(1-(3-(4-(1-(1-(2,6-dioxopiperidin-3-yl)-3-methyl-2-oxo-2,3-dihydro-1H-benzo[d]imidazol-5-yl)piperidine-4-carbonyl)piperazin-1-yl)propyl)piperidin-4-yl)-1H-pyrazol-4-yl)pyrazine-2-carboxylate] |  |  | 20.79% | 17.37%
9.02 | 57.69% | 44.41% | Nc1ncc(-c2cnn(C3CCN(CCCN4CCN(C(=O)c5ccc(C(=O)NC6CCC(=O)NC6=O)cc5)CC4)CC3)c2)nc1C(=O)O[C@@H](C(=O)Nc1ccc(F)cc1)c1ccccc1 (stereo partly drawn) [TDH-535, (R)-2-((4-fluorophenyl)amino)-2-oxo-1-phenylethyl 3-amino-6-(1-(1-(3-(4-(4-((2,6-dioxopiperidin-3-yl)carbamoyl)benzoyl)piperazin-1-yl)propyl)piperidin-4-yl)-1H-pyrazol-4-yl)pyrazine-2-carboxylate] |  |  | 20.08% | 23.78%
8.89 | 81.34% | 85.73% | Nc1ncc(-c2cnn(C3CCN(CCCN4CCN(C(=O)Cc5cccc(NC6=CC(=O)N(C7CCC(=O)NC7=O)C6=O)c5)CC4)CC3)c2)nc1C(=O)O[C@@H](C(=O)Nc1ccc(F)cc1)c1ccccc1 (stereo partly drawn) [TDH-495, (R)-2-((4-fluorophenyl)amino)-2-oxo-1-phenylethyl 3-amino-6-(1-(1-(3-(4-(2-(3-((1-(2,6-dioxopiperidin-3-yl)-2,5-dioxo-2,5-dihydro-1H-pyrrol-3-yl)amino)phenyl)acetyl)piperazin-1-yl)propyl)piperidin-4-yl)-1H-pyrazol-4-yl)pyrazine-2-carboxylate] |  |  | 42.19% | 17.62%
8.00 | 87.46% | 93.6% | Nc1ncc(-c2cnn(C3CCN(CCCN4CCN(C(=O)COc5ccc6c(c5)C(=O)N(C5CCC(=O)NC5=O)C6=O)CC4)CC3)c2)nc1C(=O)O[C@@H](C(=O)Nc1cccc(Cl)c1)c1ccccc1 (stereo partly drawn) [TDH-485, (R)-2-((3-chlorophenyl)amino)-2-oxo-1-phenylethyl 3-amino-6-(1-(1-(3-(4-(2-((2-(2,6-dioxopiperidin-3-yl)-1,3-dioxoisoindolin-5-yl)oxy)acetyl)piperazin-1-yl)propyl)piperidin-4-yl)-1H-pyrazol-4-yl)pyrazine-2-carboxylate] |  |  | 61.51% | 50.03%
